Data taken from patent US20220117989A1, “COMPOSITIONS AND METHODS FOR INDUCING OR SUPPLEMENTING SOCS3 TO ABROGATE TUMOR GROWTH AND PROLIFERATIVE RETINOPATHY” (Children's Medical Center Corporation, priority 2019, published 2022).
Where two headings read alike, the source gives them in different places.

Tests used:
LLC tumor = format: in vivo, mouse; details: as compared to PBS-treated controls
Source text: The effect of donepezil treatment was also examined in wild-type, heterozygote alpha-7 AChR knockout mice and homozygote alpha-7 AChR knockout mice (FIG. 40A).

[1] = system: tumor associated macrophages; test: FACS analysis of tumor macrophage populations (M1, M2, TIDC); format: in vivo, mouse
Source text: The impact of the above-recited modes of Socs3 modulation upon monocyte differentiation was examined (FIGS. 20-26), employing FACS analysis of monocyte populations (FIG. 20 provides an overview of the FACS approach, where green cells were positively charged and therefore sorted towards an anode plate while negatively charged red cells were sorted toward a […]).

[2] = system: Lewis lung carcinoma cell line; test: Lewis lung carcinoma (LLC) cells implanted in Socs3f/f and Socs3 Nestin ko mice, tumor growth curves; format: in vivo, mouse
[3] = system: B16F10-Luciferase Melanoma cell line; format: in vivo, mouse
Socs3 = Socs3 levels after naringenin administration to tumor-bearing mice; format: in vivo, mouse
Source text: The surprising efficacy of localized Socs3 overexpression in reducing tumor growth prompted interest in identifying compounds capable of up-regulating Socs3. One candidate molecule for up-regulation of Socs3 was Naringenin, a flavanone compound. […] Naringenin administration was also observed to have shrunk tumors at the day 12-13 timepoint examined, with 100% of tumors of Socs3f/f mice and 60% of tumors in Socs3 nestin conditional knockout mice observed to have shrunk at day 13 of the timecourse (FIGS. 18B and 18C).

tumors = test: FACS of immune cells isolated from tumors treated with Naringenin or vehicle control; format: in vivo
Method: FIG. 45 is a series of plots quantifying the tumor volume, total tumor cells isolated from tumors, total CD45 positive cells and percentage of CD45 positive cells vs. total cells in control- or Naringenin-treated tumors. 1,2,3,4,5 represents the individual tumor in each group. In order to determine whether Naringenin influences the infiltrating of different immune cell types into tumors, fluorescence-activated cell sorting (FACS) was conducted on cells isolated from tumors treated with Naringenin or vehicle control.

tumor cell = details: mouse, in vivo
[4] = agent administered to model mice, versus control animals

COc1cc2c(cc1OC)C(=O)C(CC1CCN(Cc3ccccc3)CC1)C2 (stereo not shown) [donepezil]
tumor growth rate, homozygous alpha-7 AChR knockout mice (LLC tumor): robust reduction of tumor growth rate
tumor growth, heterozygote alpha-7 AChR knockout mice (LLC tumor): significant reduction in tumor growth
F4/80+/CD11c+ (M1 macrophage) cells ([1]; mouse, in vivo): expanded population
TIDC population (CD45+; F4/80+; CD11c+ cells) ([1]; mouse, in vivo): expanded
tumor growth, LLC tumor cells [2, 4]: prevented tumor growth
tumor growth, B16F10 tumor cells [3, 4]: prevented tumor growth

O=C1NC[C@@]2(CN3CCC2CC3)O1 [AR-R17779, (2S)-2′H-spiro[4-azabicyclo[2.2.2]octane-2,5′-[1,3]oxazolidin]-2′-one]
M1 macrophage levels ([1]; Socs3 neuronal deficient tumor): promoted M1 macrophage levels
M2 macrophage levels ([1]; Socs3 neuronal deficient tumor): not promoting M2 macrophage levels
M1 macrophage levels ([1]; wild-type tumor): promoted M1 macrophage levels
M2 macrophage levels ([1]; wild-type tumor): did not change M2 macrophage levels
tumor growth, LLC tumor cells [2, 4]: significantly prevented tumor growth
tumor size ([2]; day 10 post-implantation in model mice): decreased tumor size

O=C1C[C@@H](c2ccc(O)cc2)Oc2cc(O)cc(O)c21 [Naringenin]
Socs3 levels (Socs3): increased Socs3 levels
M1 macrophage levels ([1]; Socs3 neuronal deficient tumor): promote M1 macrophage levels
M2 macrophage levels ([1]; Socs3 neuronal deficient tumor): reducing M2 macrophage levels
M1 macrophage levels ([1]; wild-type tumor): promoted M1 macrophage levels
M2 macrophage levels ([1]; wild-type tumor): did not change M2 macrophage levels
tumors observed to have shrunk, Socs3f/f mice ([2]; day 13 of the timecourse, Socs3f/f mice): 100%
tumors observed to have shrunk, Socs3 nestin conditional knockout mice ([2]; day 13 of the timecourse, Socs3 nestin conditional knockout mice): 60%
tumor growth, naringenin administration ([2]; treatment administered on day 4, Socs3-containing and Socs3 nestin conditional knockout mice): significantly decreased tumor growth
population of CD4+ T cells in the tumors (tumors; Naringenin treatment): did not change
percentage of CD45+ γδ T cells (tumors; Naringenin-treated group): increased
CD8+ T cell recruitment into tumors (tumors; Naringenin-treated tumors): variations
percentage of natural killer (NK) cells of CD45+ cells (tumors; compared to the control-treated group): higher
tumors, based on tumor volume and total cells isolated from the entire tumors (tumors; compared with control group): significantly suppressed

Botulinum toxin [Botox]
tumor growth, nestin-conditional Socs3 knockout mice (tumor cell): no additional effect on tumor growth
tumor growth, wild-type mice (tumor cell): effectively mimicked the tumor growth effect of nestin-conditional Socs3 knockout
tumor seeding (tumor cell): promoted tumor seeding

alpha-bungarotoxin [a-BTX]
TIDC population (CD45+; F4/80+; CD11c+ cells) ([1]; mouse, in vivo): contracted
tumor growth, LLC tumor cells ([2]; mouse, in vivo): promoted tumor growth
tumor growth, B16F10 tumor cells ([3]; mouse, in vivo): promoted tumor growth
